Assay results: patent US8883963B2 (Cadila Healthcare Limited, priority 2007, dated 2014)

How the values were obtained:
[1] = tested on: RIN5F (Rat Insulinoma) cells; experiment: In vitro glucose-dependent insulin secretion (RIN5F cell assay screening protocol); format: cell-based; details: 16.7 mM glucose load
Human GLP-1 receptor = biological target: T1, Human GLP-1 receptor (Homo sapiens, UniProt P43220); experiment: In vitro Human GLP-1 R agonist activity (cyclic AMP determination) in CHO/human GLP1R cells; format: cell-based
T1 construct: The full-length cDNA was cloned in pcDNA3.1(+); expressed in transfected cells
T1 sequence (P43220 24-463): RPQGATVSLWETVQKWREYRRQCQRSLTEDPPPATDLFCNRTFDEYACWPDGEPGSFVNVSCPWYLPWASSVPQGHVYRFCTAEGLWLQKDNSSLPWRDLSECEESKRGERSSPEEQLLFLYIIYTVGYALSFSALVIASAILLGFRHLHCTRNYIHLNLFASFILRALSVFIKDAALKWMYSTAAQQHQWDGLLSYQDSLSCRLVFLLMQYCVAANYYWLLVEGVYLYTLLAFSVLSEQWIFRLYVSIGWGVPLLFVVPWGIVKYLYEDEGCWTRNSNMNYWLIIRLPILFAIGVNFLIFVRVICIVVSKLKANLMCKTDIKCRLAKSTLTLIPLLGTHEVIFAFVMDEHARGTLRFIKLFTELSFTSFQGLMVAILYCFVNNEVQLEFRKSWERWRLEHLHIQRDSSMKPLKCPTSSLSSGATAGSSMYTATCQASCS

human glucagon receptor = biological target: T2, human glucagon receptor (Homo sapiens, UniProt P47871); experiment: In vitro human glucagon antagonist activity (inhibition of cAMP production) in CHO/human glucagon R cells; format: cell-based; details: with saturated concentration of glucagon peptide
T2 construct: The full-length cDNA was cloned in pcDNA3.1 (Invitrogen); expressed in transfected cells
T2 sequence (P47871 26-477): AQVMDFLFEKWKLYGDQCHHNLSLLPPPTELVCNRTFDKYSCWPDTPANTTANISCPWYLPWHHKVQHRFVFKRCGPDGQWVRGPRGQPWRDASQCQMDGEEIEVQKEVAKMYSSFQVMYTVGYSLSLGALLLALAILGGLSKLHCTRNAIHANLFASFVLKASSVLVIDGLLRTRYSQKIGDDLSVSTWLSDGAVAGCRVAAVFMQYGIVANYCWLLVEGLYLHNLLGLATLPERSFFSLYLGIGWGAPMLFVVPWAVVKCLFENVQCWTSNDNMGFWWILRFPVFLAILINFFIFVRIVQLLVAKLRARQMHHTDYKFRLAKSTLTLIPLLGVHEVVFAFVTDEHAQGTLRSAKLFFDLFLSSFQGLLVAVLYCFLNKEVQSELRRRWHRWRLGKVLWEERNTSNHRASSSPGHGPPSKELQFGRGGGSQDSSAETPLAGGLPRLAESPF

DPP IV = DPP IV (Homo sapiens, UniProt P27487); experiment: Stability against DPP IV enzyme; format: in vitro ADME; details: 37° C.; for % degradation of peptidomimetics in 24 h when incubated with DPP-IV enzyme: 2 μM peptidomimetic; for half-life at 2 μM: DPP IV enzyme, pH 7.8, 2 μM peptidomimetic, read-out: half-life (t1/2) when incubated with DPP-IV enzyme
DPP IV, sequence (P27487 whole entry, species assumed): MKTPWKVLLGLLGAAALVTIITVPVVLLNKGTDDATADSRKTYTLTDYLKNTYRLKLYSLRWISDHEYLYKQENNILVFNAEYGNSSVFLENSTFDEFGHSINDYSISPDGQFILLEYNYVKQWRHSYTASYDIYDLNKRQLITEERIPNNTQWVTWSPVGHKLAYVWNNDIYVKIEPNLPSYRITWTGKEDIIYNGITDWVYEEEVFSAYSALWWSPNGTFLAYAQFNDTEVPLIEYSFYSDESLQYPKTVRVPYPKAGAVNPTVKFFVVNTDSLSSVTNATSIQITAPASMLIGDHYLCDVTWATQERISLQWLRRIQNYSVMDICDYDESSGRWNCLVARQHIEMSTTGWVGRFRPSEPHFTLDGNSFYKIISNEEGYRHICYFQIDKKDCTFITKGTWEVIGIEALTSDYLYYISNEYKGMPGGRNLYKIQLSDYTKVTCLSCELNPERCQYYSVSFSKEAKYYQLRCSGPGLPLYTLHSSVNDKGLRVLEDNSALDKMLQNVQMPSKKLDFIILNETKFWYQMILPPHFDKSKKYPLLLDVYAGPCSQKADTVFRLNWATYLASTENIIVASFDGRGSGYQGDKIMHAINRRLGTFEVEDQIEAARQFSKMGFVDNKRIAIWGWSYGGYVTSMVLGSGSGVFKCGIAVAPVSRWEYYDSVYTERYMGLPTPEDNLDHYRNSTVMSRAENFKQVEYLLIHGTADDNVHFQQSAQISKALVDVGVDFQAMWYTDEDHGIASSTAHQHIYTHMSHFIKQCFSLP
Method: (§1) Reactions were terminated by the addition of TFA/H2O (15 mL, 10% (v/v)). […] The column was equilibrated with TFA/H20, at a flow rate of 1 mL/min.

[2] = Stability in human plasma; format: in vitro ADME; details: 2 μM peptidomimetic, pooled human plasma, 37° C.; for half-life at 2 μM: pH 7.8, read-out: half-life (t1/2) when incubated with human plasma
Method: as §1

[3] = Stability in simulated gastric fluid; format: in vitro ADME; details: 2 μM peptidomimetic, simulated gastric fluid pH 1.5, 37° C.; for half-life at 2 μM: read-out: half-life (t1/2) when incubated with simulated gastric fluid
Method: as §1

[4] = Stability in simulated intestinal fluid; format: in vitro ADME; details: 2 μM peptidomimetic, simulated intestinal fluid pH 7.5, 37° C.; for half-life at 2 μM: read-out: half-life (t1/2) when incubated with simulated intestinal fluid
Method: as §1

[5] = Stability in liver microsomes; format: in vitro ADME; details: 2 μM peptidomimetic, human liver microsomes, 37° C.; for half-life at 2 μM: pH 7.8, read-out: half-life (t1/2) when incubated with liver microsomes
Method: as §1

Structure (SMILES): CCc1cc(OC)ccc1-c1ccc(CC(NC(=O)[C@H](CC(=O)O)NC(=O)[C@H](CO)NC(=O)[C@@H](NC(=O)C(C)(Cc2ccccc2F)NC(=O)[C@@H](NC(=O)CNC(=O)C(CCC#N)NC(=O)C(C)(C)NC(=O)[C@@H](N)Cc2c[nH]cn2)[C@H](C)O)[C@@H](C)O)C(=O)NC(CCCc2ccccc2)C(N)=O)cc1 (single isomer, unassigned) [compound 110]
- Insulin secretion ([1]; 0.1 nM test compd.): 12.0 ± 0.14 pg/µg/h
- Insulin secretion ([1]; 1 nM test compd.): 14.3 ± 0.12 pg/µg/h
- Insulin secretion ([1]; 10 nM test compd.): 27.8 ± 0.32 pg/µg/h
- Human GLP-1 R activity (cAMP release), % activity with respect to control (Human GLP-1 receptor; 1 nM test compound): 38 ± 0.11%
- Human GLP-1 R activity (cAMP release), % activity with respect to control (Human GLP-1 receptor; 10 nM test compound): 77 ± 0.16%
- Human GLP-1 R activity (cAMP release), % activity with respect to control (Human GLP-1 receptor; 100 nM test compound): 85 ± 0.11%
- Human GLP-1 R activity (cAMP release), % activity with respect to control (Human GLP-1 receptor; 1 μM test compound): 94 ± 0.08%
- Human GLP-1 R activity (cAMP release), % activity with respect to control (Human GLP-1 receptor; 10 μM test compound): 97 ± 0.05%
- Human Glucagon receptor antagonistic activity shown as inhibition of cAMP production of Glucagon peptide (human glucagon receptor; 1 nM test compound): 18 ± 0.07 pmol/ml/μg prt
- Human Glucagon receptor antagonistic activity shown as inhibition of cAMP production of Glucagon peptide (human glucagon receptor; 10 nM test compound): 16 ± 0.01 pmol/ml/μg prt
- Human Glucagon receptor antagonistic activity shown as inhibition of cAMP production of Glucagon peptide (human glucagon receptor; 100 nM test compound): 12 ± 0.03 pmol/ml/μg prt
- Human Glucagon receptor antagonistic activity shown as inhibition of cAMP production of Glucagon peptide (human glucagon receptor; 1 μM test compound): 8 ± 0.02 pmol/ml/μg prt
- Human Glucagon receptor antagonistic activity shown as inhibition of cAMP production of Glucagon peptide (human glucagon receptor; 10 μM test compound): 6 ± 0.08 pmol/ml/μg prt
- % degradation of peptidomimetics in 24 h when incubated with DPP-IV enzyme (DPP IV): 00%
- half-life at 2 μM (DPP IV): > 24 h
- % degradation of peptidomimetics in 24 h when incubated with human plasma [2]: 00%
- half-life at 2 μM [2]: > 24 h
- % degradation of peptidomimetics in 24 h when incubated with simulated gastric fluid [3]: 43%
- half-life at 2 μM [3]: 4 h
- % degradation of peptidomimetics in 24 h when incubated with simulated intestinal fluid [4]: 00%
- half-life at 2 μM [4]: > 24 h
- % degradation of peptidomimetics in 24 h when incubated with liver microsomes [5]: 84%
- half-life at 2 μM [5]: 2 h

Structure (SMILES): CCc1cc(OC)ccc1-c1ccc(CC(NC(=O)[C@H](CC(=O)O)NC(=O)[C@H](CO)NC(=O)[C@@H](NC(=O)C(C)(Cc2ccccc2F)NC(=O)[C@@H](NC(=O)CNC(=O)C(CCC#N)NC(=O)C(C)(C)NC(=O)[C@@H](N)Cc2c[nH]cn2)[C@H](C)O)[C@@H](C)O)C(=O)NC(CCCc2ccccc2F)C(N)=O)cc1 (single isomer, unassigned) [compound 112]
- Insulin secretion ([1]; 0.1 nM test compd.): 15.3 ± 0.19 pg/µg/h
- Insulin secretion ([1]; 1 nM test compd.): 21.2 ± 0.11 pg/µg/h
- Insulin secretion ([1]; 10 nM test compd.): 35.5 ± 0.19 pg/µg/h
- Human GLP-1 R activity (cAMP release), % activity with respect to control (Human GLP-1 receptor; 1 nM test compound): 39 ± 0.10%
- Human GLP-1 R activity (cAMP release), % activity with respect to control (Human GLP-1 receptor; 10 nM test compound): 81 ± 0.08%
- Human GLP-1 R activity (cAMP release), % activity with respect to control (Human GLP-1 receptor; 100 nM test compound): 89 ± 0.09%
- Human GLP-1 R activity (cAMP release), % activity with respect to control (Human GLP-1 receptor; 1 μM test compound): 96 ± 0.11%
- Human GLP-1 R activity (cAMP release), % activity with respect to control (Human GLP-1 receptor; 10 μM test compound): 99 ± 0.16%
- Human Glucagon receptor antagonistic activity shown as inhibition of cAMP production of Glucagon peptide (human glucagon receptor; 1 nM test compound): 6 ± 0.01 pmol/ml/μg prt
- Human Glucagon receptor antagonistic activity shown as inhibition of cAMP production of Glucagon peptide (human glucagon receptor; 10 nM test compound): 5 ± 0.02 pmol/ml/μg prt
- Human Glucagon receptor antagonistic activity shown as inhibition of cAMP production of Glucagon peptide (human glucagon receptor; 100 nM test compound): 2 ± 0.13 pmol/ml/μg prt
- Human Glucagon receptor antagonistic activity shown as inhibition of cAMP production of Glucagon peptide (human glucagon receptor; 1 μM test compound): 0 pmol/ml/μg prt
- Human Glucagon receptor antagonistic activity shown as inhibition of cAMP production of Glucagon peptide (human glucagon receptor; 10 μM test compound): 0 pmol/ml/μg prt
- % degradation of peptidomimetics in 24 h when incubated with DPP-IV enzyme (DPP IV): 00%
- half-life at 2 μM (DPP IV): > 24 h
- % degradation of peptidomimetics in 24 h when incubated with human plasma [2]: 00%
- half-life at 2 μM [2]: > 24 h
- % degradation of peptidomimetics in 24 h when incubated with simulated gastric fluid [3]: 49%
- half-life at 2 μM [3]: 4 h
- % degradation of peptidomimetics in 24 h when incubated with simulated intestinal fluid [4]: 00%
- half-life at 2 μM [4]: > 24 h
- % degradation of peptidomimetics in 24 h when incubated with liver microsomes [5]: 82%
- half-life at 2 μM [5]: 2 h
